Experimental findings from patent publication US20230227453A1 (priority 2020, published 2023) are described below.

The target of experiment [1] is T1, 5-HT2A (Homo sapiens, UniProt P28223). Put plainly: Serotonin 5-HT2A in vitro cellular IPOne agonism assay. In kind it is cell-based. To be noted: CHO-K1 cells, IPOne HTRF, 60 min. The arrangement: host or cells: CHO-K1. The protocol: Serotonin 5-HT2A In Vitro Cellular IPOne Agonism Assay. The 5-HT2A IPOne HTRF assay was performed at Epics Therapeutics S.A. (Belgium, FAST-0505I) using conventional methods. Briefly, CHO-K1 cells expressing human recombinant 5-HT2A receptor grown to mid-log phase in culture media without antibiotics were detached with PBS-EDTA, centrifuged, and resuspended in medium without antibiotics buffer. 20,000 cells are distributed in a 96 well plate and incubated overnight at 37° C. with 5% CO2.
T1 sequence (P28223 whole entry): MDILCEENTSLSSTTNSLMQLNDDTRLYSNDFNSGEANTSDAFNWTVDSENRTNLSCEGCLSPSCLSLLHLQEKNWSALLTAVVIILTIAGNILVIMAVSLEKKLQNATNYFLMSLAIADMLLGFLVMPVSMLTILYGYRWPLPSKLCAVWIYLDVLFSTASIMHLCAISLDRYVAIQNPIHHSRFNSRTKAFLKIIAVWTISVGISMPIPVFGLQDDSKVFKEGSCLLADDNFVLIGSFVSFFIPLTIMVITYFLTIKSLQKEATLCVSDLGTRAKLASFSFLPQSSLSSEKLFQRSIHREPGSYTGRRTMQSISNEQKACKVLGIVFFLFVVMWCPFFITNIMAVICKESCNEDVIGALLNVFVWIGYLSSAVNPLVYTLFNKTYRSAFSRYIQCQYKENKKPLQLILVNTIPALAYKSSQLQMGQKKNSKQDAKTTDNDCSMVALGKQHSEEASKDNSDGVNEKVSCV
For agonist testing, the medium is removed and 20 μl of assay buffer plus 20 μl of test compound or reference agonist are added in each well. The plate is incubated for 60 min. at 37° C. with 5% CO2.
After addition of the lysis buffer containing IP1-d2 and anti-IP1 cryptate detection reagents, plates are incubated 1-hour at room temperature, and fluorescence ratios are measured according to the manufacturer specification, with the HTRF kit.

Experiment [2] deals with T1, 5-HT2A. Put plainly: Serotonin 5-HT2A in vitro radioligand binding competition assay. Further details: purchased Epics Therapeutics S.A. (Belgium) FAST-0505B; host or cells: membrane extracts. To be noted: radiotracer [3H]-DOI, membrane extracts. On the procedure: Serotonin 5-HT2A In Vitro Radioligand Binding Competition Assay. The 5-HT2A radioligand binding competition assay was performed at Epics Therapeutics S.A. (Belgium, FAST-0505B) using conventional methods. Briefly, competition binding is performed in duplicate in the wells of a 96 well plate (Master Block, Greiner, 786201) containing binding buffer (optimized for each receptor), membrane extracts (amount of protein/well optimized for each receptor), radiotracer [^3H]-DOI (final concentration optimized for each receptor) and test compound. Nonspecific binding is determined by co-incubation with 200-fold excess of cold competitor. The samples are incubated in a final volume of 0.1 ml at a temperature and for a duration optimized for each receptor and then filtered over filter plates. Filters are washed six times with 0.5 ml of ice-cold washing buffer (optimized for each receptor) and 50 μl of Microscint 20 (Packard) are added in each well. The plates are incubated 15 min on an orbital shaker and then counted with a TopCount™ for 1 min/well.

Another experiment deals with rat cortical neurons. Put plainly: Neurite Outgrowth Assay (Procedure B). Further details: key: A: Statistically significant mean increase as a percent of DMSO control at 10 μM or less; B: No statistically significant mean increase as a percent of DMSO control at 10 μM or less. In kind it is cell-based. To be noted: primary rat neuronal cultures, 72h, vs DMSO control, 10 μM or less. On the procedure: Neurite Outgrowth Assay (Procedure B). Pregnant Wistar rats (Janvier; France) were used for the study. They were delivered 6 days before their use. Upon arrival at Neurofit animal facility, they were housed one per cage and maintained in a room with controlled temperature (21-22° C.) and a reversed light-dark cycle (12h/12h; lights on: 17:30-05:30; lights off: 05:30-17:30) with food and water available ad libitum.
Female Wistar rats of 17 days gestation were killed by cervical dislocation and the fetuses were removed from the uterus. Their brains were placed in ice-cold medium of Leibovitz (L15, Gibco, Fisher bioblock, France). Cortices were dissected and meninges were carefully removed. The cortical neurons were dissociated by trypsinization for 30 min at 37° C. (trypsin-EDTA, Gibco) in presence of 0.1 mg/ml DNAse I (Roche, France). The reaction was stopped by addition of Dulbecco's Modified Eagle Medium (DMEM; Gibco) with 10% of fetal bovine serum (FBS; Gibco). The suspension was triturated with a 10-ml pipette and using a needle syringe 21G and centrifuged at 350×g for 10 min at room temperature. The pellet of dissociated cells was resuspended in a medium consisting of Neurobasal (Gibco) supplemented with 2% B27 supplement (Gibco), 0.5 mM L-Glutamine (Gibco), an antibiotic-antimicotic mixture. Viable cells were counted in a Neubauer cytometer using the trypan blue exclusion test (Sigma). Cells were seeded at a density of 10000 cells per well in 96-well plate (Costar) precoated with poly-L-lysine. Test compound at different concentrations were added to the cultures. Donepezil (positive control) was tested at 250 nM.
After 72h (3 days) of plating, cultures were fixed with paraformaldehyde in PBS (4%, Sigma) for 30 min at 4° C. Then, cells were successively permeabilized with 0.1% Triton X100 for 30 min, saturated with PBS containing 3% of BSA and were incubated 1 h with anti-beta III tubulin antibody (Sigma) at 1/10 000 in PBS containing 0.5% of BSA. Cells were washed three times with PBS containing 0.5% of BSA, and they were incubated 1 h with goat anti-mouse antibody coupled with AF488 (Invitrogen A11001) diluted at 1/1000 in PBS containing 0.5% of BSA. Finally, nuclei were staining with DAPI 1 mg/ml at 1/1000 in PBS containing 0.5% of BSA. After rinsing with PBS, the plate was filmed and neurite networks were examined and analyzed using High-Content Screening (Celllnsight, Thermo Scientific). The average number of neurites per neuron and the average total length of neurites per neuron were the main parameters analyzed. Analysis of data was performed using analysis of variance (ANOVA). The Fisher's Protected Least Significant Difference test was used for multiple comparisons. A p value≤0.05 was considered significant. The software used is StatView 5.0 from SAS Institut.

At 5-HT2A [1], `Cc1ccc2c3c(n(C)c2n1)CCNCC3` [Example 10, 2,10-dimethyl-5,6,7,8,9,10-hexahydropyrido[3′,2′:4,5]pyrrolo[2,3-d]azepine] returned a concentration for a half-maximal effect (EC50) of 10 to 100 nM. The compound also registered an IC50 at 5-HT2A [2] of 1000 to 10000 nM.

On 5-HT2A [1], `Cn1c2c(c3cc(Cl)cnc31)CCNCC2` [Example 28, 3-chloro-10-methyl-5,6,7,8,9,10-hexahydropyrido[3′,2′:4,5]pyrrolo[2,3-d]azepine] yielded an EC50 of 101 to 1000 nM. The compound also registered an IC50 at 5-HT2A [2] of 101 to 1000 nM.

`COc1ccc2c3c(n(C)c2n1)CCNCC3` [Example 5, 2-methoxy-10-methyl-5,6,7,8,9,10-hexahydropyrido[3′,2′:4,5]pyrrolo[2,3-d]azepine] yielded an EC50 on 5-HT2A [1] of 10 to 100 nM. The compound further yielded an IC50 on 5-HT2A [2] of 101 to 1000 nM. Moreover, in the experiment with rat cortical neurons, the “Increase in Neurite Length” value is “B” and the “Increase in Neurite Number” value is recorded as “B”.

Regarding `c1cnc2[nH]c3c(c2c1)CCNCC3` [Example 17, 5,6,7,8,9,10-hexahydropyrido[3′,2′:4,5] pyrrolo[2,3-d] azepine], the EC50 at 5-HT2A [1] was 101 to 1000 nM. Also, on 5-HT2A [2], the IC50 lay in the range of 101 to 1000 nM.

`Cn1c2c(c3cc(Cl)cnc31)CCN(C1COC1)CC2` [Example 29, 3-chloro-10-methyl-7-(oxetan-3-yl)-5,6,7,8,9,10-hexahydropyrido[3′,2′:4,5]pyrrolo[2,3-d]azepine]: the EC50 at 5-HT2A [1] lay within 1000 to 10000 nM. This compound also came in with an IC50 on 5-HT2A [2] of more than 10000 nM.

As for `Cc1ccc2c3c(n(C)c2n1)CCN(C)CC3` [Example 12, 2,7,10-trimethyl-5,6,7,8,9,10-hexahydropyrido[3′,2′:4,5]pyrrolo[2,3-d]azepine], at 5-HT2A [1], the EC50 lay within 101 to 1000 nM. For the same compound, the IC50 at 5-HT2A [2] was in the range of 1000 to 10000 nM. Further, in the experiment on rat cortical neurons, the “Increase in Neurite Length” value was “B” and the “Increase in Neurite Number” value is “B”.

In turn, `COc1ccc2[nH]c3c(c2n1)CCN(C)CC3` [Example 15, 2-methoxy-8-methyl-5,6,7,8,9,10-hexahydropyrido[2′,3′:4,5]pyrrolo[2,3-d]azepine] displayed an EC50 on 5-HT2A [1] of 101 to 1000 nM. On 5-HT2A [2], the IC50 lay in the range of 101 to 1000 nM.

Compound `CN1CCc2[nH]c3ncccc3c2CC1` [Example 20, 7-methyl-5,6,7,8,9,10-hexahydropyrido[3′,2′:4,5]pyrrolo[2,3-d]azepine] came in with an EC50 at 5-HT2A [1] of 101 to 1000 nM. The IC50 on 5-HT2A [2] fell in the range of 101 to 1000 nM.

With `COc1ccc2c3c([nH]c2n1)CCN(C1COC1)CC3` [Example 4, 2-methoxy-7-(oxetan-3-yl)-5,6,7,8,9,10 hexahydropyrido[3′,2′:4,5]pyrrolo[2,3-d]azepine], the EC50 on 5-HT2A [1] is more than 10000 nM. The same compound registered an IC50 on 5-HT2A [2] of more than 10000 nM. For the same compound, in the experiment on rat cortical neurons, the “Increase in Neurite Length” value was “B” and the “Increase in Neurite Number” value is “B”.

`CN1CCc2[nH]c3ncc(Cl)cc3c2CC1` [Example 26, 3-chloro-7-methyl-5,6,7,8,9,10-hexahydropyrido[3′,2′:4,5]pyrrolo[2,3-d]azepine]: the half-maximal effective concentration (EC50) at 5-HT2A [1] lay within 101 to 1000 nM. Further, on 5-HT2A [2], the IC50 fell in the range of 101 to 1000 nM.

On 5-HT2A [1], `CN1CCc2c(n(C)c3ncc(Cl)cc23)CC1` [Example 30, 3-chloro-7,10-dimethyl-5,6,7,8,9,10-hexahydropyrido[3′,2′:4,5]pyrrolo[2,3-d]azepine] gave an EC50 of 101 to 1000 nM. The compound also displayed an IC50 on 5-HT2A [2] of 101 to 1000 nM.

As to `COc1ccc2c3c(n(C)c2n1)CCN(C1COC1)CC3` [Example 6, 2-methoxy-10-methyl-7-(oxetan-3-yl)-5,6,7,8,9,10-hexahydropyrido[3′,2′:4,5]pyrrolo[2,3-d]azepine], the EC50 on 5-HT2A [1] was in the range of 1000 to 10000 nM. Besides, the IC50 on 5-HT2A [2] is more than 10000 nM.

`Brc1ccc2c3c([nH]c2n1)CCNCC3` [Example 16, 2-bromo-5,6,7,8,9,10-hexahydropyrido[3′,2′:4,5]pyrrolo[2,3-d]azepine]: the EC50 at 5-HT2A [1] lay within 10 to 100 nM. Also, the IC50 at 5-HT2A [2] was 101 to 1000 nM.

Consider `Clc1cnc2[nH]c3c(c2c1)CCN(C1COC1)CC3` [Example 27, 3-chloro-7-(oxetan-3-yl)-5,6,7,8,9,10-hexahydropyrido[3′,2′:4,5]pyrrolo[2,3-d]azepine], for which the EC50 at 5-HT2A [1] fell in the range of 1000 to 10000 nM. The compound further came in with an IC50 at 5-HT2A [2] of 1000 to 10000 nM.

Regarding `Cn1c2c(c3ccc(Br)nc31)CCNCC2` [Example 25, 2-bromo-10-methyl-5,6,7,8,9,10-hexahydropyrido[3′,2′:4,5]pyrrolo[2,3-d]azepine], the EC50 on 5-HT2A [1] lay in the range of 10 to 100 nM. Further, on 5-HT2A [2], the IC50 is 101 to 1000 nM.

On to `c1cnc2[nH]c3c(c2c1)CCN(C1COC1)CC3` [Example 22, 7-(oxetan-3-yl)-5,6,7,8,9,10-hexahydropyrido[3′,2′:4,5]pyrrolo[2,3-d]azepine], for which the EC50 at 5-HT2A [1] is more than 10000 nM. Also, the 50% inhibitory concentration (IC50) at 5-HT2A [2] is more than 10000 nM.

Consider `Cn1c2c(c3cccnc31)CCNCC2` [Example 18, 10-methyl-5,6,7,8,9,10-hexahydropyrido[3′,2′:4,5]pyrrolo[2,3-d]azepine], for which the EC50 at 5-HT2A [1] was 101 to 1000 nM. On 5-HT2A [2], this compound had an IC50 of 101 to 1000 nM.

In the case of `Brc1ccc2c3c([nH]c2n1)CCN(C1COC1)CC3` [Example 24, 2-bromo-7-(oxetan-3-yl)-5,6,7,8,9,10-hexahydropyrido[3′,2′:4,5]pyrrolo[2,3-d]azepine], at 5-HT2A [1], the EC50 was 1000 to 10000 nM. In addition, the IC50 at 5-HT2A [2] lay within 1000 to 10000 nM.

`CN1CCc2c(n(C)c3ncccc23)CC1` [Example 21, 7,10-dimethyl-5,6,7,8,9,10-hexahydropyrido[3′,2′:4,5]pyrrolo[2,3-d]azepine] gave an EC50 on 5-HT2A [1] of 101 to 1000 nM. Also, the IC50 at 5-HT2A [2] lay in the range of 101 to 1000 nM.

With `Cn1c2c(c3cccnc31)CCN(C1COC1)CC2` [Example 23, 10-methyl-7-(oxetan-3-yl)-5,6,7,8,9,10-hexahydropyrido[3′,2′:4,5]pyrrolo[2,3-d]azepine], the EC50 on 5-HT2A [1] lay within 1000 to 10000 nM. This compound also returned an IC50 on 5-HT2A [2] of more than 10000 nM.

`CN1CCc2[nH]c3nc(Br)ccc3c2CC1` [Example 19, 2-bromo-7-methyl-5,6,7,8,9,10-hexahydropyrido[3′,2′:4,5]pyrrolo[2,3-d]azepine] had a 50% effective concentration (EC50) at 5-HT2A [1] of 101 to 1000 nM. On 5-HT2A [2], the 50% inhibitory concentration (IC50) fell in the range of 1000 to 10000 nM.

On 5-HT2A [1], `COc1cc2c3c([nH]c2cn1)CCN(C)CC3` [Example 14, 3-methoxy-7-methyl-5,6,7,8,9,10-hexahydropyrido[4′,3′:4,5]pyrrolo[2,3-d]azepine] yielded an EC50 of more than 10000 nM. Moreover, on 5-HT2A [2], the half-maximal inhibitory concentration (IC50) is more than 10000 nM.

`Clc1cnc2[nH]c3c(c2c1)CCNCC3` [Example 13, 3-chloro-5,6,7,8,9,10-hexahydropyrido[3′,2′:4,5]pyrrolo[2,3-d] azepine]: the EC50 at 5-HT2A [1] was 10 to 100 nM. The same compound yielded an IC50 on 5-HT2A [2] of 101 to 1000 nM.

A word on the EC50: it is the concentration at which the effect is half-maximal. A word on the IC50: it is the concentration that inhibits the measured activity by half.
